According to the supplement of paper PMC10307832:

Tests used:
Assay in all cases: relative viability (nuclei count vs DMSO), 5 days (fraction); higher = more cells survive
[1] = test system: NCI-H322M
How it was run: (§1)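 Medians of duplicate plates are given as relative viability. That measure is the nuclei count in treated wells divided by the count in vehicle wells. Counts were taken on 4× images of lung cancer cell lines in 1536-well plates, 5 days after pin-tool dosing the day after seeding with one drug alone or a fixed anchor-drug dose plus five library-drug doses (not always all listed) in √10 steps.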

[2] = test system: CAL-12T
How it was run: as §1

[3] = test system: NCI-H1734
How it was run: as §1

[4] = test system: COR-L23
How it was run: as §1

[5] = test system: NCI-H1437
How it was run: as §1

[6] = test system: NCI-H2228
How it was run: as §1

[7] = test system: ABC-1
How it was run: as §1

[8] = test system: EKVX
How it was run: as §1

[9] = test system: NCI-H1355
How it was run: as §1

[10] = test system: PC-3 [JPC-3]
How it was run: as §1

[11] = test system: H3255
How it was run: as §1

Q: NC(=O)Nc1cc(-c2cccc(F)c2)sc1C(=O)N[C@H]1CCCNC1 [AZD7762] + CS(=O)(=O)N1CCN(Cc2cc3nc(-c4cccc5[nH]ncc45)nc(N4CCOCC4)c3s2)CC1 [Pictilisib] (partner 1 µM) was tested. Which relative viability ([1]; first compound 0.01 µM) did it give?
A: 0.484

Q: And the relative viability ([1]; first compound 0.03162 µM)?
A: 0.552

Q: What about the relative viability ([1]; first compound 0.1 µM) of the same compound?
A: 0.502

Q: And the relative viability ([1]; first compound 0.3162 µM)?
A: 0.5

Q: What about the relative viability ([1]; first compound 1 µM) of the same compound?
A: 0.426

Q: What about the relative viability ([2]; first compound 0.01 µM) of the same compound?
A: 0.413

Q: And the relative viability ([2]; first compound 0.03162 µM)?
A: 0.521

Q: What about the relative viability ([2]; first compound 0.1 µM) of the same compound?
A: 0.385

Q: And the relative viability ([2]; first compound 0.3162 µM)?
A: 0.405

Q: And the relative viability ([2]; first compound 1 µM)?
A: 0.238

Q: What about the relative viability ([3]; first compound 0.01 µM) of the same compound?
A: 0.538

Q: And the relative viability ([3]; first compound 0.03162 µM)?
A: 0.535

Q: And the relative viability ([3]; first compound 0.1 µM)?
A: 0.524

Q: What about the relative viability ([3]; first compound 0.3162 µM) of the same compound?
A: 0.384

Q: And the relative viability ([3]; first compound 1 µM)?
A: 0.293

Q: What about the relative viability ([4]; first compound 0.01 µM) of the same compound?
A: 0.743

Q: What about the relative viability ([4]; first compound 0.03162 µM) of the same compound?
A: 0.86

Q: What about the relative viability ([4]; first compound 0.1 µM) of the same compound?
A: 0.818

Q: What about the relative viability ([4]; first compound 0.3162 µM) of the same compound?
A: 0.68

Q: What about the relative viability ([4]; first compound 1 µM) of the same compound?
A: 0.288

Q: And the relative viability ([5]; first compound 0.01 µM)?
A: 0.501

Q: What about the relative viability ([5]; first compound 0.03162 µM) of the same compound?
A: 0.442

Q: And the relative viability ([5]; first compound 0.1 µM)?
A: 0.483

Q: What about the relative viability ([5]; first compound 0.3162 µM) of the same compound?
A: 0.555

Q: What about the relative viability ([5]; first compound 1 µM) of the same compound?
A: 0.477

Q: What about the relative viability ([6]; first compound 0.01 µM) of the same compound?
A: 0.381

Q: What about the relative viability ([6]; first compound 0.03162 µM) of the same compound?
A: 0.539

Q: What about the relative viability ([6]; first compound 0.1 µM) of the same compound?
A: 0.396

Q: What about the relative viability ([6]; first compound 0.3162 µM) of the same compound?
A: 0.21

Q: What about the relative viability ([6]; first compound 1 µM) of the same compound?
A: 0.136

Q: And the relative viability ([7]; first compound 0.01 µM)?
A: 0.72

Q: What about the relative viability ([7]; first compound 0.03162 µM) of the same compound?
A: 0.84

Q: What about the relative viability ([7]; first compound 0.1 µM) of the same compound?
A: 0.611

Q: What about the relative viability ([7]; first compound 0.3162 µM) of the same compound?
A: 0.462

Q: What about the relative viability ([7]; first compound 1 µM) of the same compound?
A: 0.245

Q: And the relative viability ([8]; first compound 0.01 µM)?
A: 0.459

Q: And the relative viability ([8]; first compound 0.03162 µM)?
A: 0.451

Q: And the relative viability ([8]; first compound 0.1 µM)?
A: 0.462

Q: And the relative viability ([8]; first compound 0.3162 µM)?
A: 0.327

Q: And the relative viability ([8]; first compound 1 µM)?
A: 0.276

Q: And the relative viability ([9]; first compound 0.01 µM)?
A: 0.405

Q: And the relative viability ([9]; first compound 0.03162 µM)?
A: 0.428

Q: What about the relative viability ([9]; first compound 0.1 µM) of the same compound?
A: 0.44

Q: What about the relative viability ([9]; first compound 0.3162 µM) of the same compound?
A: 0.445

Q: What about the relative viability ([9]; first compound 1 µM) of the same compound?
A: 0.391

Q: What about the relative viability ([10]; first compound 0.01 µM) of the same compound?
A: 0.774

Q: What about the relative viability ([10]; first compound 0.03162 µM) of the same compound?
A: 0.793

Q: What about the relative viability ([10]; first compound 0.1 µM) of the same compound?
A: 0.779

Q: What about the relative viability ([10]; first compound 0.3162 µM) of the same compound?
A: 0.705

Q: What about the relative viability ([10]; first compound 1 µM) of the same compound?
A: 0.448

Q: And the relative viability ([11]; first compound 0.01 µM)?
A: 0.527

Q: And the relative viability ([11]; first compound 0.03162 µM)?
A: 0.448

Q: What about the relative viability ([11]; first compound 0.1 µM) of the same compound?
A: 0.519

Q: And the relative viability ([11]; first compound 0.3162 µM)?
A: 0.514

Q: What about the relative viability ([11]; first compound 1 µM) of the same compound?
A: 0.418
